row,melting point [°C],SMILES
1,236 to 239,Oc1nccc2cccnc12
2,238 to 240,CC(=O)NC[C@H]1CN(c2ccc(-c3nsc(C(N)=O)n3)c(F)c2)C(=O)O1
3,70 to 73,COC(=O)C=Cc1ccc(OC)c(C)c1
4,> 310,COc1ccc(-c2c(C(N)=O)n(C)c(=O)c3ncccc23)cc1
5,116 to 118,COc1ccc2c(c1OC)SCCC2C#N (stereo not drawn)
6,> 200,Clc1ccc(Cl)c(CN2CCNc3ncc(-c4ccc(N5CCCC5)nc4)cc32)c1
7,105,COc1cccc(SC(CC(=O)c2ccccc2)c2cccc([N+](=O)[O-])c2)c1 (stereo not drawn)
8,210 to 215,Cc1nc(NCC(C)C)sc1C(=O)c1ccc(N)c([N+](=O)[O-])c1
9,76 to 77,COCOc1cc(OC)c(OCOC)c(CCCCCc2c(OC)c(OCOC)c(C)c(OC)c2OCOC)c1OC
10,174 to 176,CCOc1ccc(-c2ccc3c(c2)C=C(C(=O)Nc2ccc(CN(C)C4CCOCC4)cc2)CCO3)cc1
11,40 to 43,CC(F)C1C(=O)NC1CC(=O)OCc1ccccc1 (mixture of isomers)
12,132 to 133,Cc1ccc(C(=O)Nc2cn(C3CCCCO3)nc2C(=O)NCC(F)(F)F)cn1 (stereo not drawn)
13,207 to 208,O=C1CCCCc2cc(I)ccc2N1
14,83,C(=Cc1ccccc1)COc1ccc2c(c1)OCO2
15,90 to 92,CC(=O)c1ccc(-c2ccccc2)cc1O
16,93 to 95,O=C1NCC(Cc2ccccc2O)O1 (stereo not drawn)
17,178,Oc1ccc2c(c1)CCCC(c1ccccc1)=C2c1ccc(OCCCCCSCc2cccs2)cc1
18,218 to 219,COc1cc2c(cc1OC)C(Cc1cc(I)c(NC(C)=O)c(I)c1)N(C(=O)C(F)(F)F)CC2 (stereo not drawn)
19,134 to 135,CCOC(=O)c1cnn2c1c(N1CCN(c3ccccc3)CC1)nc1ccccc12
20,101 to 103,Cc1nn(C)c(N)c1C(=O)Nc1ccccc1F
21,179 to 180,COc1ccc(CNc2nnc(Cl)c3cc([N+](=O)[O-])ccc23)cc1Cl
22,106 to 109,CS(=O)(=O)CC(O)(Cn1cncn1)C(F)(F)C(F)(F)C(F)(F)C(F)(F)F (stereo not drawn)
23,247,N#Cc1c(Cl)c2cc(Cl)cnc2[nH]c1=O
24,52 to 53,COc1cc(CCC#N)c(Br)cc1OCc1ccccc1

row,melting point [°C],SMILES
1,177 to 178,Cc1nc2scc(C)n2c1S(N)(=O)=O
2,203 to 204,CS(=O)(=O)Nc1cc(C(F)(F)F)ccc1-c1cc(Oc2ccc3cccnc3c2)ncn1
3,149 to 151,COCCOc1cc(Cc2cnc(N)nc2N)cc2c1NCCC2
4,308 to 314,c1ccc2c(c1)c1nncn1c1c(-c3noc(C4CC4)n3)ncn21
5,175 to 177,Cn1cc(C(=O)NCc2ccc(Cl)cc2)c(=O)c2cc(CC3CCOCC3)cc(I)c21
6,120 to 122,CC(C)(C)N[C@@H]1CCc2c(ccc(OCc3ccccc3)c2C#N)[C@H]1O (relative stereo)
7,118 to 120,CCn1c(=O)c(C(=O)NCCOC)c(O)c2ccc(C)nc21
8,146 to 148,COc1ccccc1N1CCN(S(=O)(=O)c2ccc(Nc3ccnc4cc(C(F)(F)F)ccc34)cc2)CC1
9,129 to 130,CCCCCCCCCCCC(=O)c1c[nH]c2ccccc12
10,168 to 169,CC(C)(C)OC(=O)N1CCN(C(=O)Nc2ccccc2)CC1
11,69,CCCCCCOc1ccc(C=[N+]([O-])C(C)(C)C)cc1
12,> 290,O=c1[nH]c(=S)c2[nH]cnc2n1-c1ccccc1
13,176 to 178,COC1(OC)CC(Nc2ncnc3c2ncn3C2OC(CO)C(O)C2O)NC1=O (stereo not drawn)
14,96.2,O=C(CCCCCCCCCCCCCCCO)OCOC(=O)CCCCCCCCCCCCCCCO
15,97 to 100,CCc1cc(-c2ccc(-c3ccnn3C)cc2)ccc1OC
16,> 290,N=C(NO)c1ccc(-c2cccc(-c3nc4ccc(C(=N)NO)cc4[nH]3)n2)cc1
17,148 to 150,CCCc1nc2c(N)nc3ccccc3c2n1CC(OCC)OCC
18,65 to 66,CCOC(=O)C(C)NC(=O)c1cc(C)on1 (stereo not drawn)
19,228 to 231,Cc1ccccc1NC(=O)c1ccc(C(=O)N2Cc3cccn3Cc3ccccc32)cc1
20,100 to 101,CC(C)c1ccc(O[C@@H](Cc2ccc(OCCNC(=O)c3ccc(-c4ccccn4)cc3)cc2)C(=O)O)cc1
21,160 to 170,CS(=O)CCC(NS(=O)(=O)c1ccc2c(c1)Sc1ccccc1O2)C(=O)O (stereo not drawn)
22,133 to 136,COc1cc(C(C)C(=O)O)ccc1-c1ccc(F)cc1 (stereo not drawn)
23,190 to 194,O=C(NC(=O)N1CCOCC1)c1cccc(-c2noc(-c3ccccc3F)n2)c1
24,55,[N-]=[N+]=Nc1ccc(C(=O)OCCOC(=O)C[C@@H](C(=O)O)n2c3ccccc3c3ccccc32)cc1

row,melting point [°C],SMILES
1,198 to 200,COc1ccc(C(=O)O)cc1Nc1ccccc1
2,207 to 214,Cc1c[nH]c(C)c1-c1nc2ccc(C(=O)c3ccccc3)cc2[nH]1
3,183 to 184,CCN1c2ncccc2NC(=O)c2cc(CCc3ccccc3)cnc21
4,129 to 131,CCCC(CCC)n1nnc2c(Oc3c(Br)cc(C(C)C)cc3OC)nc(C)nc21
5,155 to 157,Cn1c(C(F)(F)F)ccc(-c2cc(N)c(Cl)cc2F)c1=O
6,124 to 128,Cc1ccc(N=C(Nc2ccc(C)cc2)ON2C(C)(C)CC(OC(=O)c3ccccc3)CC2(C)C)cc1
7,156 to 157,Cc1ccccc1-c1nc(-c2ccccc2Cl)sc1-c1ccc(S(C)(=O)=O)cc1
8,82 to 83,COc1ccc(C(C)(C)C)cc1C=Cc1ccc(C=O)cc1
9,38 to 40,CCCCCCCCCCCCCCc1cccc(O)c1
10,221 to 222,O=C(O)c1ccc(OCCCc2cc(-c3ccc(C(F)(F)F)cc3)no2)cc1
11,209 to 212,O=S(=O)(CCO)c1ccc(S(=O)(=O)CCO)cc1
12,203,CCCCc1c(C)c2ccc(OCCCCl)cc2[nH]c1=O
13,218 to 220,O=Cc1c(O)cccc1OCc1ccccc1C(=O)O
14,92 to 93,CCCCc1nnc(SCc2ccc(Cl)cc2)n1Cc1ccc(-c2ccccc2-c2nnn[nH]2)cc1
15,190 to 193,CC(C)(C)c1cc(C2CC(=O)N(CCCCCCN3C(=O)CC(c4cc(C(C)(C)C)c(O)c(C(C)(C)C)c4)C3=O)C2=O)cc(C(C)(C)C)c1O (stereo not drawn)
16,94,CC(=O)Nc1ccc(OC(F)(F)F)cc1-c1ccccc1
17,113 to 114,NC(=O)CC1C=CC=CC1(F)F (stereo not drawn)
18,250 to 252,COc1cc2c(cc1-c1c(C)nn(C)c1C)-c1c(-c3cccs3)c3c(n1CC2)C(=O)N(C(C)C)CCNC3
19,158 to 161,CCCOc1ccccc1-c1ccc(N)c(=O)[nH]1
20,216 to 217,CCC(C)C(C)C(=O)Nc1ccc2ncnc(NC=C(C(=O)OC)C(=O)OC)c2c1 (stereo not drawn)
21,180 to 181,CN(C)C=C(C#N)C(=O)Nc1c(F)cccc1F
22,102 to 104,Cc1cc(Oc2ncc(C(F)(F)F)cc2Cl)nn1C(=O)N(C)C
23,150 to 153,CCCCCCCCOc1ccc2cc(C(=O)O)ccc2c1
24,141 to 142,Clc1cc2c(cc1Cl)CCC(N1CCCC1)=C2

row,melting point [°C],SMILES
1,126 to 128,N#Cc1ccc(Oc2ccc(CC(=O)O)cc2)cc1
2,221 to 223,CC1(C)COC(c2ccc(-c3ccc4cc(O)ccc4c3)cc2)=N1
3,84,CCCCCCCCCCCCCCCCCCNC(=O)OC(=O)CCCCCCCCCCCCCCCCC
4,208 to 209,COc1ccc(-c2c(Cl)c(CN3C(=O)CSC3=O)nc3sc4c(c23)CCSC4)cc1
5,79.8 to 80,COC1=C(Cl)C(=O)C(OC)=C(CCCCCC2=C(OC)C(=O)C(Cl)=C(OC)C2=O)C1=O
6,104 to 106,"COc1cccc(C2(c3cccc(OC)c3)CC2C=CC(=O)NC(C)CCCc2ccncc2)c1 (single isomer, unassigned)"
7,112,O=C(O)CCCCCCCCN1C(=O)C(c2ccccc2)N(c2ccccc2)C1=O (stereo not drawn)
8,218 to 220,Cn1cc(-c2cccc(N3Cc4cc(C(C)(C)C)ccc4C3=O)c2CO)cc(Nc2ccc(N3CCNCC3=O)cn2)c1=O
9,66,COC(=O)CCCCC#Cc1cc(Cl)ccc1N
10,214 to 215,O=C1c2ccccc2C(=O)N1CCCSc1nccc(NC(=S)NCC(F)(F)F)n1
11,94 to 96,COCCOc1cc(N(C)S(=O)(=O)c2ccccn2)c2[nH]c(C3=NCC(CC(=O)N(C)CCO)S3)cc2c1 (stereo not drawn)
12,131 to 134,Cc1c(-c2ccc(OCc3ccccc3)cc2)n(Cc2ccc(OCCBr)cc2)c2ccc(OCc3ccccc3)cc12
13,107 to 109,CCOC(=O)c1c(C)oc(=O)c(-c2c(C)cc(C)cc2C)c1OC(C)=O
14,128 to 130,O=c1n(F)nc(SC(Cl)Cl)n1-c1ccccc1
15,85,CCCCc1nc2cccc(C(=O)OC)c2[nH]1
16,133 to 135,FC(F)C(F)(F)Oc1cccc(Nc2nccc(-c3ccc(Cl)cc3)n2)c1
17,122 to 126,CN1C[C@]2(C)CC[C@](NCC(=O)N3C[C@@H](F)C[C@H]3C#N)(C1)C2(C)C
18,138 to 140,O=C(CN1C(=O)CC1S(=O)Cc1ccccc1)NCCCCCCc1ccccc1 (stereo not drawn)
19,145 to 147,Cc1cc(C#N)ccc1-c1cc(=O)c2c(O)cc(O)c([C@@H]3CCN(C)[C@H]3CO)c2o1
20,107 to 109,COC(=O)C1(CCCCl)Oc2ccccc2CCC1O (stereo not drawn)
21,172 to 173,O=C(Nc1cccc(C(F)(F)F)c1)N1CCCCc2cc(O)ccc21
22,125 to 126,CC(=O)NC[C@H]1CN(c2cc(F)c(C3CCNCC3)c(F)c2)C(=O)O1

row,SMILES,melting point [°C]
1,O=C1NCN(c2ccccc2)C12CCN(C1CCC(c3ccc(F)cc3)(c3ccc(F)cc3)CC1)CC2,249 to 253
2,C#CCC1CC2C(CCC3(C)C(=O)CCC23)C2CCC(=O)C=C12 (stereo not drawn),186 to 188
3,CC(Cc1ccc(OCCCO)cc1)NCC(O)c1cccc(C(F)(F)F)c1 (stereo not drawn),97 to 103
4,Cc1sc2c(c1C)C(c1ccc(Cl)cc1)=N[C@@H](CC(=O)NCCO)c1nnc(C)n1-2,254 to 255
